# Source: ChEMBL document CHEMBL5620395, “Development and therapeutic potential of allosteric retinoic acid receptor-related orphan receptor γt (RORγt) inverse agonists for autoimmune diseases” (Eur J Med Chem, 2023)
# Target: T1, Peroxisome proliferator-activated receptor gamma (Homo sapiens, UniProt P37231)
# T1 sequence (P37231 whole entry): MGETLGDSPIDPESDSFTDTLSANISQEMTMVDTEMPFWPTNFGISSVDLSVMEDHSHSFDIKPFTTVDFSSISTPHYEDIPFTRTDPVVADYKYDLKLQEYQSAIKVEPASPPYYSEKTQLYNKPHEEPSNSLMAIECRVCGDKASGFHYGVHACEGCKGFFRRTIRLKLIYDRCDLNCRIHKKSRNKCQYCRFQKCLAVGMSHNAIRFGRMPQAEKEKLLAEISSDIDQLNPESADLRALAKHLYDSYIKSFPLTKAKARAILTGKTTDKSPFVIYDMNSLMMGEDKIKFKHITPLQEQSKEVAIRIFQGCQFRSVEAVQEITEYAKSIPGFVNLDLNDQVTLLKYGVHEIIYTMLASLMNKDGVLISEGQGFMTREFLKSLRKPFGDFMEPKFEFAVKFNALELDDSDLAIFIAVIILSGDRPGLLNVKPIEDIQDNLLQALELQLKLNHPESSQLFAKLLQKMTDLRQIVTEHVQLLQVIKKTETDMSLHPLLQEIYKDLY
# Assay: Inverse agonist activity at human his 6 tagged PPARgammaLBD incubated for 60 mins by TR-FRET assay
# Details: not given
row,SMILES,IC50 [nM]
1,C[C@H](CCC(=O)NCCOCCOCCOCCOCCOCCOCCOCCOCCOCCOCCOCCOCCOCCOCCOCCNC(=O)c1ccc2c(-c3ccc(C(=O)O)cc3)nn(C(=O)c3c(Cl)cccc3C(F)(F)F)c2c1)[C@H]1CC[C@H]2[C@@H]3CC=C4C[C@@H](O)CC[C@]4(C)[C@H]3CC[C@]12C,> 100000

# Target: T2, Nuclear receptor ROR-gamma (Homo sapiens, UniProt P51449)
# T2 sequence (P51449 whole entry): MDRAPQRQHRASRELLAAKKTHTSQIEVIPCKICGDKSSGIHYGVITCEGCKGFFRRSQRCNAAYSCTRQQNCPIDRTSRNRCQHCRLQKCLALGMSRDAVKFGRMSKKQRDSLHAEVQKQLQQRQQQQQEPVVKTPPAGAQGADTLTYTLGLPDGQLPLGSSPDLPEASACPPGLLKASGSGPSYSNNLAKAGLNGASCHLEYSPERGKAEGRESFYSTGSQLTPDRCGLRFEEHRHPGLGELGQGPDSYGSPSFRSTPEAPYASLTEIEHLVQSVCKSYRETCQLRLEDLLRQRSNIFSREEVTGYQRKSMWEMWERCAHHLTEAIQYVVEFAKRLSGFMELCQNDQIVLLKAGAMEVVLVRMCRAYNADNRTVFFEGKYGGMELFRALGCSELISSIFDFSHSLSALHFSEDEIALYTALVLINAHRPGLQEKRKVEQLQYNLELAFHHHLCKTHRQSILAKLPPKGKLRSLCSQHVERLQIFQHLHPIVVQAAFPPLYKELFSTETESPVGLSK
# Assay: Inhibition of RORgamma (unknown origin) incubated for 1 hr by TR-FRET method
# Details: not given
row,SMILES,IC50 [nM]
1,Cc1cc2c(s1)c(-c1ccc(C(=O)O)cc1F)nn2C(=O)c1c(Cl)cccc1Cl,< 50
2,Cc1cc2c(s1)c(-c1ccc(C(=O)O)cc1F)nn2C(=O)c1c(Cl)cccc1C(F)(F)F,< 50
3,Cc1cc2c(s1)c(-c1ccc(C(=O)O)c(F)c1)nn2C(=O)c1c(F)cccc1C(F)(F)F,< 50
4,CN(C)C(=O)c1cc2c(s1)c(-c1ccc(C(=O)O)cc1F)nn2C(=O)c1c(F)cccc1C(F)(F)F,< 50
5,Cc1cc2c(s1)c(-c1ccc(C(=O)O)cc1)nn2C(=O)c1c(Cl)cccc1C(F)(F)F,< 50
6,Cc1cc2c(s1)c(-c1ccc(C(=O)O)cc1)nn2C(=O)c1c(C)cccc1Cl,< 50
7,Cc1cc2c(s1)c(-c1ccc(C(=O)O)cc1F)nn2C(=O)c1c(F)cccc1C(F)(F)F,< 50
8,Cc1cc2c(s1)c(-c1ccc(C(=O)O)cc1)nn2C(=O)c1c(Cl)cccc1Br,< 50

# Tested on: not listed separately
# Assay: Inhibition of IL-17a mRNA level in […] at 10 uM incubated for 24 hrs by RT-PCR analysis
# Assay type: functional, cell-based
# Details: el4
row,SMILES,IC50 [nM]
1,C[C@H](CCC(=O)NCCOCCOCCOCCOCCOCCOCCOCCOCCOCCOCCOCCOCCOCCOCCOCCNC(=O)c1ccc2c(-c3ccc(C(=O)O)cc3)nn(C(=O)c3c(Cl)cccc3C(F)(F)F)c2c1)[C@H]1CC[C@H]2[C@@H]3CC=C4C[C@@H](O)CC[C@]4(C)[C@H]3CC[C@]12C,110
